Results on one molecule are retold here after US12569453B2, “Use of tapinarof for the treatment of atopic dermatitis” (Dermavant Sciences GmbH, priority 2018, dated 2026).

The nature of data set [1]: minipig 28 day toxicology, formulation F (NOAEL). The format is in vivo. As to conditions: 3% [60 mg/kg/day].
The nature of data set [2]: Phase II AD study: plasma PK samples. The format is in vivo, human. The conditions noted are these: for concentration at 1 week: Week 1; for concentration at 2 week: Week 2; for concentration at 4 week: Week 4; for concentration at 8 week: Week 8. As for the experimental part: Pharmacokinetics: A total of 5 blood samples for PK analysis of GSK2894512 were collected from each subject over the clinic visits at Weeks 1, 2, 4, 8, and 12. Plasma analysis was performed under the management of Bioanalytical Science and Toxicokinetics, DMPK, GSK.
Pharmacokinetics: Subjects with atopic dermatitis, BSA involvement >5% and <35%, excluding scalp, and Baseline IGA score of >3 at Baseline, participated in this study in which 2 concentrations of Tapinarof cream (0.5% and 1%) and a vehicle control were evaluated following application to all AD lesions (except on the scalp) once or twice daily for 12 weeks.
A total of 5 blood samples for PK analysis of Tapinarof were collected from each subject at the following clinic visits: Weeks 1, 2, 4, 8, and 12. Subjects were advised to provide PK samples during each of the following 3 time windows: 1 to 3 hours post application, 3 to 6 hours post application, and 6 to 12 hours post application.

The mark [3] stands for this setting: human, plasma, topical, 0.5 % cream BID, Subject 111301, 0.5% BID.
Setting [4] is: human, plasma, topical, 0.5 % cream BID, Subject 316851, 0.5% BID.
Where [5] appears, read: human, plasma, topical, 1 % cream BID, Subject 110406, 1% BID.
Setting [6] is: human, plasma, topical, 1 % cream BID, Subject 110604, 1% BID.

As for `CC(C)c1c(O)cc(/C=C/c2ccccc2)cc1O` [Tapinarof, 3,5-Dihydroxy-4-isopropyl-trans-stilbene], in data set [1], the “gender averaged NOAEL Cmax” value was found to be 0.84 ng/mL. The “subjects with plasma concentration >0.84 ng/mL (minipig NOAEL Cmax)” value came to 4 subjects in data set [2] (0.5% BID); 2 subjects in data set [2] (0.5% QD); 5 subjects in data set [2] (1% BID); 2 subjects in data set [2] (1% QD); 13 subjects in data set [2] (all Tapinarof groups, out of 247). The concentration at 1 week in data set [2] (setting [3]) is 6.09 ng/mL; in data set [2] (setting [4]), 0.362 ng/mL; in data set [2] (setting [5]) it was 0.233 ng/mL; in data set [2] (setting [6]), 1.48 ng/mL. Moreover, the concentration at 2 week in data set [2] (setting [3]) came out at 0.438 ng/mL; in data set [2] (setting [4]), 0.106 ng/mL; in data set [2] (setting [5]), 0.347 ng/mL; in data set [2] (setting [6]), 0.266 ng/mL; in data set [2] (human, plasma, topical, 1 % cream BID, Subject 316651, 1% BID), 181 ng/mL. In addition, the concentration at 4 week came out at 0.649 ng/mL in data set [2] (setting [3]), 4.9 ng/mL in data set [2] (setting [5]) and 0.43 ng/mL in data set [2] (setting [6]). The concentration at 8 week in data set [2] (setting [4]) worked out at 1.93 ng/mL; in data set [2] (setting [5]), 0.514 ng/mL; in data set [2] (setting [6]), 0.0716 ng/mL. The molecule further displayed a concentration at 12 week in data set [2] (human, plasma, topical, 1 % cream BID, Subject 110604, 1% BID, Week 12) of 0.311 ng/mL. The same molecule returned a quantifiable plasma samples in data set [2] (of 753 samples from subjects on active treatment, LLOQ 0.04 ng/mL) of 348.
